We go through four compounds from US8981112B2, “Inhibitors of β-secretase” (Boehringer Ingelheim International GmbH, priority 2012, dated 2015).

Data set [1] has as its system production of Abeta1-x peptides in H4 neuroglioma cell line stably expressing human APP. Nature of the data set: H4-APPwt Cell-Based Assay (Assay 2), Abeta1-x production. The settings on record: H4 neuroglioma cells expressing human APP, Abeta1-x; read-out: H4-APPwt cell IC50 nM (assay 2). The procedure: H4-APPwt Cell-Based Assay (Assay 2)
Cellular potency of the compounds of the invention was assessed in an assay monitoring production of Abeta1-x peptides in the H4 neuroglioma cell line (ATCC, Cat. #HTB-148) stably expressing human APP, using an immunoassay such as AlphaLISA (PerkinElmer, Cat.# AL288). Tested compounds were dissolved in DMSO and pre-diluted in the culture medium (DMEM containing 10% FBS and 1% penicillin/streptomycin) to achieve twice the final concentration of the compounds in the assay. Equal volumes of the 2× solutions of the tested compounds and cell suspension were added to a 96-well culture plate, so that each well contained ˜10,000 cells in a final volume of 200 μl. Final concentration of DMSO in the assay was 0.2%. The plates were incubated for 5 hrs at 37° C., 5% CO2 to allow cells to attach to the bottom of the wells in the presence of the tested compounds. Then the media was removed and replaced with fresh media containing tested compounds at the same final concentration. The plates were incubated for 18 hrs at 37° C., 5% CO2. Concentrations of Ab1-x were determined using AlphaLISA immunoassay (PerkinElmer, Cat.# AL288) following manufacturer's protocol. Concentrations of Abeta1-x in the wells containing either DMSO or 10 μM beta-secretase inhibitor (BACE inhibitor IV, EMD Bioscience, Cat. #565788) were used as uninhibited and background controls, correspondingly, for calculating percent inhibition values for each well with the tested compounds.

Another data set concerns the target hERG (Homo sapiens (Human), UniProt Q12809). Briefly: hERG-Channel Assay (Assay 3), whole-cell patch clamp. In kind it is cell-based. The settings on record: human, HEK293 cells stably transfected with hERG, pH 7.4; 10 μM, HEK293 cells transfected with hERG. From the text:
hERG-Channel Assay (Assay 3)
HEK (human embryonic kidney) 293 cells were stably transfected with hERG cDNA.
Cells were superfused with a bath solution containing (mM): NaCl (137), KCl (4.0), MgCl2 (1.0), CaCl2 (1.8), Glucose (10), HEPES (10), pH 7.4 with NaOH. Patch pipettes were made from borosilicate glass tubing using a horizontal puller and filled with pipette solution containing (mM): K-aspartate (130), MgCl2 (5.0), EGTA (5.0), K2ATP (4.0), HEPES (10.0), pH 7.2 with KOH. Resistance of the microelectrodes was in the range between 2 and 5 MΩ.
Membrane currents were recorded using an EPC-10 patch clamp amplifier and PatchMaster software. hERG-mediated membrane currents were recorded at 35° C., using the whole-cell configuration of the patch-clamp technique. Transfected HEK293 cells were clamped at a holding potential of −60 mV and hERG-mediated inactivating tail currents were elicited using a pulse pattern with fixed amplitudes (activation/inactivation: 40 mV for 2000 ms; recovery: −120 mV for 2 ms; ramp to 40 mV in 2 ms; inactivating tail current: 40 mV for 50 ms) repeated at 15 s intervals. During each inter-pulse interval 4 pulses scaled down by a factor of 0.2 were recorded for a P/n leak subtraction procedure. Rs compensation was employed up to a level that safely allowed recording devoid of ringing.
The different concentrations of the test compound were applied sequentially on each of the different cells investigated. A steady state level of baseline current was measured for at least 6 sweeps prior to the application of the first test compound concentration.
The test compound was dissolved in DMSO to yield a master stock solution which was diluted further in DMSO to stock solutions needed for the lower concentrations. Final dilutions in extracellular buffer were prepared freshly from these stocks by a 1:1000 dilution step each before starting the experiments.
Peak current amplitudes were measured 3 ms after the ramp to +40 mV. For baseline and each concentration the peak currents of the three last sweeps before application of the next concentration were averaged. Residual currents (I/I0) were calculated for each cell as the fraction of actual average peak current and average baseline peak current. Results are presented as percent (%) inhibition (1−I/I0)*100% at 10 μM.

Data set [2] concerns brain amyloid peptides Aβ1-x. Briefly: Rat Brain Aβ Lowering Assay (Assay 5). In kind it is in vivo. The settings on record: 3 hrs after dosing. As to the method: Rat Brain Aβ Lowering Assay (Assay 5)
The animals were sacrificed 3 hrs after dosing, and brains were excised, dissected into cerebellum and left and right cerebra and flash-frozen in liquid nitrogen.
The cerebrum was homogenized (5 volumes per weight) in 20 mM Tris-HCL, pH 8.5, 0.2% Triton-X100 supplemented with protease inhibitors (complete, Roche Applied Science) at 4° C. using a glass Dounce homogenizer. The homogenate was centrifuged at 120,000×g for 60 min at 4° C., and the supernatant was collected and analyzed for Ab1-x using immunoassay with chemiluminescent detection (Meso-Scale Discovery, Rockville, Md. (MSD)).
Streptavidin 96-well plates (MSD) were pre-blocked with 5% Blocker A solution (MSD) for 1 hr at rt on an orbital shaker and washed 4 times with phosphate buffered saline (PBS). The wells were pre-coated with 20 ng/well of biotinylated antibody SIG-39155 (Clone M3.2, specific for amino acids 10-15 of the rodent Aβ) for 1 hr at rt and washed 4 times with PBS. For Aβ1-x analysis, 25 μl of either the cleared brain lysates or Aβ1-40 standards (8-500 pg/ml, with 2× increment) were incubated for 1 hr at rt with constant shaking. The wells were washed 4 times with PBS, and 25 μl of the detection antibody (Sulfo-TAG labeled anti-Aβ40 antibody supplied by MSD) was added and incubated for 1 hr at rt. After 4 washes with PBS, 150 μl of the chemiluminescence detection reagent (Read Buffer T, MSD) was added, and the plate was read on an MSD Sector Imager 6000 instrument. The calibration curve was fit into a non-linear four-parameter regression model, and the Aβ1-x concentrations were calculated for each well containing the cleared brain lysates. The percent of Aβ lowering was calculated based on the difference with the average Aβ concentration obtained for the brains from the animals treated with vehicle alone.

Data set [3] is described as follows: In Vitro Phospholipidosis Assay (Assay 4), Nile red staining. It is filed as cell-based. The settings on record: human, first effect concentration, U937 cells, read-out: Phospholipidosis FEC IC50 μM (assay 4). The procedure:
In Vitro Phospholipidosis Assay (Assay 4)
The phospholipidogenic potential of test compounds was assayed using the human hematopoetic U937 cell line. The test principle was to analyze the phospholipid content by staining the cells with the fluorescent dye Nile red.
U937 cells were seeded into cell culture plates at 0.5×10^6 cells/mL in RPMI medium containing 10% FBS, 1% DMSO, and 0.005% gentamicin. The cells were then cultivated with or without different concentrations of test compounds for 48 h under standard culture conditions.
For harvesting the cells were centrifuged at 130×g for 4 min and washed once with PBS. Then 2×0.5 mL cell suspension was prepared for non-fixed cell measurement (0.5 mL for propidium iodide (PI) viability measurement and 0.5 mL for Nile red measurement).
The remaining cells were fixed with 3.7% formaldehyde for 30 min. After a further centrifugation step cells were resuspended with 1.3 mL Nile red working solution (1 μg/mL) and incubated for 5 min at rt. The cell suspension was then washed twice with 3 mL PBS and centrifuged with 130×g for 4 min. The supernatant was discarded and the cells were resuspended with 0.5 mL PBS and kept for flow cytometry measurement. For Nile red staining of the 0.5 mL non-fixed cell samples, 50 μL of a ready to use Nile red solution (10 μg/mL) were added per sample. Samples were kept on ice for 5 min. Thereafter, they were washed once with 4 mL PBS (4° C., 250×g for 8 min) and finally resuspended in 400 μL PBS and kept for flow cytometry measurement.
For the viability measurement, 12.5 μL of the ready to use PI solution (10 μg/mL) were added to the 0.5 mL non-fixed cell suspension. After 15 min of incubation on ice, the samples were measured by flow cytometry using a Coulter Epics XL/MCL flow cytometer.
The viability of the cells of each sample was determined by flow cytometry measurement of the PI content at channel 2 (568-590 nm). Cut-off gates for the fluorescence-dependent differentiation between live and dead cells were defined based on the analysis of cell culture medium control samples.
Only samples with a cell viability of >=90% relative to control samples were analyzed for phospholipidosis. For that, each Nile red sample (non-fixed and fixed samples) was measured by flow cytometry at channel 1 (504-541 nm) and channel 4 (660-680 nm).
For each channel, relative Nile red fluorescence intensity of a test sample was calculated compared to control samples and expressed as percentage of control fluorescence intensity. The assessment of the phospholipidogenic potential and the first effect concentration (FEC) of a test compound was done manually based on the fluorescence intensities at both wavelengths for the fixed cells as well as for the non-fixed cells.

Chain of hERG (Q12809 whole entry): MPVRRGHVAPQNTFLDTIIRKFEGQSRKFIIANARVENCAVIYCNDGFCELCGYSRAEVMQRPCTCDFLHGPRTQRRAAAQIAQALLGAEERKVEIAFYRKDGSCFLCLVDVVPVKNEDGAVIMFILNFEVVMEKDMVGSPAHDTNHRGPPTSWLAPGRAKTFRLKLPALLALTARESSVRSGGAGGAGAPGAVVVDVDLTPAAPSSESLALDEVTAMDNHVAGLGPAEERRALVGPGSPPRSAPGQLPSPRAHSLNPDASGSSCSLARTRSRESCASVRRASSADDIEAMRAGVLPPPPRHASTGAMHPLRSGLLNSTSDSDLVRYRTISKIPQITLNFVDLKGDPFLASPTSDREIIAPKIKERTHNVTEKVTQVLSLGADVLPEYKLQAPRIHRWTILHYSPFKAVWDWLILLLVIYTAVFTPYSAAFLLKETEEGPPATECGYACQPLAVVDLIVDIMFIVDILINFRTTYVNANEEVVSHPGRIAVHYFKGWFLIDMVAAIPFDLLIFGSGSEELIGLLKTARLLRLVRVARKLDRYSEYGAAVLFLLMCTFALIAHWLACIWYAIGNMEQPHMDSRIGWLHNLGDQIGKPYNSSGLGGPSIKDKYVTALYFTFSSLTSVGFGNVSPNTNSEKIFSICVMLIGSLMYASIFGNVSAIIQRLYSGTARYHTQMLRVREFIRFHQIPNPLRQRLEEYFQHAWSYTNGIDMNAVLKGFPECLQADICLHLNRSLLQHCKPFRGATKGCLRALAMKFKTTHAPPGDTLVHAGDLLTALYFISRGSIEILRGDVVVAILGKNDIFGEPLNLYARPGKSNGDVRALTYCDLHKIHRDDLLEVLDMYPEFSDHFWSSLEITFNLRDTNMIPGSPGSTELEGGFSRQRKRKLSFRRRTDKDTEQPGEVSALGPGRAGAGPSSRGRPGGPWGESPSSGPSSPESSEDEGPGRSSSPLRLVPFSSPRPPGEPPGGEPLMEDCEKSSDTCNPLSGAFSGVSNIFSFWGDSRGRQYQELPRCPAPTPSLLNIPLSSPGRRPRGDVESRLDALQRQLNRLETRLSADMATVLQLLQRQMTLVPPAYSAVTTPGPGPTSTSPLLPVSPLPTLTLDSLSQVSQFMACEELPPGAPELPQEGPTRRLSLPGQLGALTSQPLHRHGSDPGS

For the compound `CO[C@H]1CC[C@@]2(Cc3ccc(C#N)cc3[C@]23N=C(N)N(Cc2ncccn2)C3=O)C[C@@H]1C` [Example 6], in data set [1], the IC50 (commonly the concentration that gives 50% inhibition) came out at 1.24 nM. For the same compound, 10 µM produced 35% inhibition against hERG. Moreover, the “% Aβ Reduction” value in data set [2] (single oral dose 50 mg/kg) worked out at 60%. Moreover, in data set [3], the IC50 at 48 h came to 200 µM.

For the compound `CO[C@H]1[C@H](C)C[C@@]2(Cc3ccc(C#N)cc3[C@]23N=C(N)N(CC2(C)OCCO2)C3=O)C[C@@H]1C` [Example 20], the half-inhibitory concentration (IC50) in data set [1] came to 0.28 nM. For the same compound, on hERG, the inhibition (commonly the share of the control response that was lost under treatment) at 10 µM came to 8%. Moreover, the “% Aβ Reduction” value in data set [2] (single oral dose 25 mg/kg) came out at 73%. For the same compound, in data set [3], the IC50 at 48 h was more than 400 µM.

Regarding `CC[C@@H]1C[C@]2(CC[C@H]1OC)Cc1ccc(C#N)cc1[C@]21N=C(N)N(C[C@H]2COCCO2)C1=O` [Example 28], the IC50 in data set [1] was 0.5 nM. At hERG, 10 µM produced 9% inhibition. The “% Aβ Reduction” value in data set [2] (single oral dose 12.5 mg/kg) came to 30%. Moreover, in data set [3], the 50% inhibitory concentration (IC50) at 48 h came out at 400 µM.

As to `CO[C@H]1[C@H](C)C[C@@]2(Cc3ccc(F)cc3[C@]23N=C(N)N(CC2(C)OCCO2)C3=O)C[C@@H]1C` [Example 29], in data set [1], the IC50 was determined as 0.3 nM. At hERG, this compound had an inhibition at 10 µM of 7%. The “% Aβ Reduction” value in data set [2] (single oral dose 25 mg/kg) is on record as 78%. In addition, the IC50 at 48 h in data set [3] was 200 µM.
